Earlier results as cited in US20230157949A1, “ORAL FILM OF HIV DRUGS” (LAURUS LABS LIMITED, priority 2020, published 2023).

Conditions: in combination with low doses of ritonavir

Cc1cccc(C)c1OCC(=O)N[C@@H](Cc1ccccc1)[C@@H](O)C[C@H](Cc1ccccc1)NC(=O)[C@H](C(C)C)N1CCCNC1=O [lopinavir, Lopinavir]
increase of AUC: greater than 100 fold
